What was measured:
[1] = system: downy bromegrass; assay: Test D preemergence test; format: in vivo, Bromus tectorum; conditions: scale 0 to 100
Description: Seeds of plant species selected from annual bluegrass (Poa annua), blackgrass (Alopecurus myosuroides), downy bromegrass (Bromus tectorum), field violet (Viola arvensis), green foxtail (Setaria viridis), Italian ryegrass (Lolium multiflorum), littleseed canarygrass (Phalaris minor), spring wheat (Triticum aestivum), wild oat (Avena fatua), […]), winter barley (Hordeum vulgare), and winter wheat (Triticum aestivum) were planted and treated preemergence with test chemicals formulated in a non-phytotoxic solvent mixture which included a surfactant. […] A dash (-) response means no test result.

[2] = system: large crabgrass; assay: Test F preemergence test; format: in vivo, Digitaria sanguinalis; conditions: scale 0 to 100
In short: (§1)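 Test chemicals in a non-phytotoxic solvent mixture containing a surfactant were applied preemergence to sown seeds or postemergence to sugarcane plants. Treated plants and controls were held in a greenhouse for 14 to 21 days, then visually evaluated against controls.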

[3] = system: barnyardgrass; assay: Test F preemergence test; format: in vivo, Echinochloa crus-galli
In short: as §1

[4] = system: Virginia dayflower; assay: Test F preemergence test; format: in vivo, Commelina virginica; conditions: scale 0 to 100
In short: as §1

[5] = system: spanishneedles; assay: Test F preemergence test; format: in vivo, Bidens bipinnata; conditions: scale 0 to 100; for Spanishneedles plant response rating: 125 g ai/ha
In short: as §1

[6] = system: Russian thistle; assay: Test F preemergence test; format: in vivo, Salsola kali; conditions: scale 0 to 100
Description: Seeds of plant species selected from bermudagrass (Cynodon dactylon), Surinam grass (Brachiaria decumbens), large crabgrass (Digitaria sanguinalis), green foxtail (Setaria viridis), goosegrass (Eleusine indica), johnsongrass (Sorghum halepense), kochia (Kochia scoparia), pitted morningglory (Ipomoea lacunosa), purple nutsedge (Cyperus rotundus), common ragweed (Ambrosia elation), mustard (Brassica nigra), guineagrass (Panicum maximum), […] (Paspalum dilatatum), barnyardgrass (Echinochloa crus-galli), southern sandbur (Cenchrus echinatus), common sowthistle (Sonchus oleraceous), prickly […] spinosa), Italian ryegrass (Lolium multiflorum), common purslane (Portulaca oleracea), broadleaf signalgrass (Brachiaria platyphylla), common groundsel (Senecio vulgaris), common chickweed (Stellaria media), Virginia dayflower (Commelina virginica), annual bluegrass (Poa annua), naked crabgrass (Digitaria nuda), […] cochinchinensis), quackgrass (Elytrigia repens), Canada horseweed (Conyza canadensis), field bindweed (Convolvulus arvensis), […] (Bidens bipinnata), common mallow (Malva sylvestris), Russian thistle (Salsola kali), and sugarcane (Saccharum officinarum) were planted and treated preemergence with test chemicals formulated in a non-phytotoxic solvent mixture which included a surfactant. At a different time, sugarcane was treated with postemergence applications of some of the test chemicals formulated in the same manner. Plants were approximately 3- to 4-leaf stage for the postemergence treatments. Treated plants and controls were maintained in a greenhouse for 14 to 21 days, after which time all species were compared to controls and visually evaluated. […] A dash (-) response means no test result.

[7] = system: common chickweed; assay: Test F preemergence test; format: in vivo, Stellaria media; conditions: scale 0 to 100
In short: as §1

[8] = 16 g ai/ha, preemergence, scale 0 to 100 (0 no effect, 100 complete control)
[9] = 62 g ai/ha, Preemergence, scale 0 to 100
[10] = 125 g ai/ha, preemergence, scale 0 to 100
[11] = Preemergence, 31 g ai/ha, scale 0 to 100

SMILES	Plant response rating, Bromegrass, Downy ([1]; 31 g ai/ha)	Plant response rating, Bromegrass, Downy ([1]; 62 g ai/ha)	Plant response rating, Bromegrass, Downy ([1]; 125 g ai/ha)	Plant response rating, Bromegrass, Downy ([1]; 250 g ai/ha)	Plant response rating, Crabgrass, Large ([2]; 16 g ai/ha, preemergence)	Crabgrass, Large plant response rating ([2]; 62 g ai/ha, Preemergence)	Crabgrass, Large plant response rating ([2]; 125 g ai/ha, preemergence)	Plant response rating, Crabgrass, Large ([2]; Preemergence, 31 g ai/ha)	Plant response rating, Barnyardgrass [3, 8]	Barnyardgrass plant response rating [3, 9]	Barnyardgrass plant response rating [3, 10]	Plant response rating, Barnyardgrass [3, 11]	Plant response rating, Dayflower ([4]; 16 g ai/ha, preemergence)	Dayflower plant response rating ([4]; 62 g ai/ha, Preemergence)	Dayflower plant response rating ([4]; 125 g ai/ha, preemergence)	Plant response rating, Dayflower ([4]; Preemergence, 31 g ai/ha)	Spanishneedles plant response rating ([5]; preemergence)	Plant response rating, Spanishneedles ([5]; Preemergence, 62 g ai/ha)	Plant response rating, Spanishneedles ([5]; Preemergence, 31 g ai/ha)	Plant response rating, Russian Thistle ([6]; 16 g ai/ha, preemergence)	other results
Cc1cc[n+]([O-])c(S(=O)(=O)C(C)c2c(C(F)(F)F)nn(C)c2Cl)c1 (racemic) [Compound 14]	0	0	60	60																	
CC(c1c(C(F)(F)F)nn(C)c1OCC(F)(F)F)S(=O)(=O)c1cccc[n+]1[O-] (racemic) [Compound 33]					15	85	100	35	100	100	100	100	60	98	100	90	65	35	35	0	
Cc1cc[n+]([O-])c(S(=O)(=O)C(Cl)c2c(C(F)(F)F)nn(C)c2OCC(F)(F)F)c1 (racemic) [Compound 37]					0	50	50	35	20	100	100	40	0	100	100	90	0	0	0	0	Plant response rating, Spanishneedles ([5]; 16 g ai/ha, preemergence): 0; Plant response rating, Russian Thistle ([6]; Preemergence, 31 g ai/ha): 0
Cn1nc(C(F)(F)F)c(CS(=O)(=O)c2cccc[n+]2[O-])c1OC(F)F [Compound 4]	30	30	30	30		100		70		80		80		90		90					Plant response rating, Crabgrass, Large ([2]; Preemergence, 16 g ai/ha): 70; Plant response rating, Barnyardgrass ([3]; 8 g ai/ha, preemergence, scale 0 to 100): 10; Plant response rating, Barnyardgrass ([3]; Preemergence, 16 g ai/ha, scale 0 to 100): 65; Plant response rating, Chickweed ([7]; 8 g ai/ha, preemergence): 60; Chickweed plant response rating ([7]; 62 g ai/ha, Preemergence): 100; Plant response rating, Chickweed ([7]; Preemergence, 16 g ai/ha): 100; Plant response rating, Chickweed ([7]; Preemergence, 31 g ai/ha): 100; Plant response rating, Dayflower ([4]; 8 g ai/ha, preemergence): 0; Plant response rating, Dayflower ([4]; Preemergence, 16 g ai/ha): 0; Plant response rating, Russian Thistle ([6]; 8 g ai/ha, preemergence): 0; Russian Thistle plant response rating ([6]; 62 g ai/ha, Preemergence): 100; Plant response rating, Russian Thistle ([6]; Preemergence, 16 g ai/ha): 0; Plant response rating, Russian Thistle ([6]; Preemergence, 31 g ai/ha): 100
